Laboratory results published in patent publication US11261201B2 (priority 2018, dated 2022).
Values after ≈ are worked out from the molar mass of the structure shown. Like-named read-outs stand apart in the source and are kept apart here.

Legend:
H37RvMA = assay: Tuberculosis Alamar Blue/Resazurin assay (MIC); format: cell-based; conditions: Mycobacterium tuberculosis, H37RV, WT H37Rv MTB; read-out: WT H37Rv MTB Activity
E. coli = assay: Gram negative MIC protocol (OD600, LB, 24 h); conditions: Escherichia coli
Experimental: (§1) Overnight bacterial cultures were grown in LB with no added antibiotics at 37° C. with shaking. A 1:1000 dilution of these cultures into LB was exposed to concentration gradients of compounds in 96-well plates (100 μL per well assay volume). Resulting plates were incubated at 37° C. for 24 h without shaking, and OD600 was measured at the end of the incubation. MICs were determined as the lowest concentrations at which OD600 remained at baseline.

A. baumannii = assay: Gram negative MIC protocol (OD600, LB, 24 h); conditions: Acinetobacter baumannii, read-out: MIC A. baumannii LB Media, A. baumannii, LB media, 24 h, OD600
Experimental: as §1

[1] = read-out: MIC E. coli delta-TolC LB Media, E. coli delta-TolC strain, LB media, 24 h, OD600
[2] = read-out: MIC WT E. coli LB Media, wild-type E. coli, LB media, 24 h, OD600

Row | Structure (SMILES) | MIC (H37RvMA) | MIC (E. coli; [1]) | MIC (E. coli; [2]) | MIC (A. baumannii)
1 | COC(=O)c1occc1COc1ccccc1CNC(C)CC1CCCCC1 (stereo not drawn) [B265] | 91 µM (≈ 35.1 µg/mL) | 3 µM (≈ 1.16 µg/mL) | 150 µM (≈ 57.8 µg/mL) | 91 µM (≈ 35.1 µg/mL)
2 | COc1cccc(OCCOc2ccccc2CNC(C)CC2CCCCC2)c1 (stereo not drawn) [B266] | 55 µM (≈ 21.9 µg/mL) | 2 µM (≈ 0.795 µg/mL) | 150 µM (≈ 59.6 µg/mL) | 33 µM (≈ 13.1 µg/mL)
3 | COC(=O)c1ccoc1COc1ccccc1CNC(C)CC1CCCCC1 (stereo not drawn) [B267] | 91 µM (≈ 35.1 µg/mL) | 7 µM (≈ 2.7 µg/mL) | > 150 µM | > 150 µM
4 | CCc1cnc(COc2ccccc2CNC(C)CC2CCCCC2)o1 (stereo not drawn) [B268] | 91 µM (≈ 32.4 µg/mL) | 7 µM (≈ 2.5 µg/mL) | > 150 µM | > 150 µM
5 | CC(CC1CCCCC1)NCc1ccccc1OCC1(CO)COC1 (stereo not drawn) [B269] | > 150 µM | 7 µM (≈ 2.43 µg/mL) | > 150 µM | 55 µM (≈ 19.1 µg/mL)
6 | CC(CC1CCCCC1)NCc1ccccc1OCC(=O)NC(C)C(=O)N(C)C (stereo not drawn) [B270] | > 150 µM | 20 µM (≈ 8.07 µg/mL) | > 150 µM | > 150 µM
7 | COc1ccc(OCCCOc2ccccc2CNC(C)CC2CCCCC2)cc1 (stereo not drawn) [B271] | 55 µM (≈ 22.6 µg/mL) | 3 µM (≈ 1.23 µg/mL) | 150 µM (≈ 61.7 µg/mL) | 55 µM (≈ 22.6 µg/mL)
8 | COC(=O)c1cc(COc2ccccc2CNC(C)CC2CCCCC2)oc1C (stereo not drawn) [B272] | 150 µM (≈ 59.9 µg/mL) | 12 µM (≈ 4.79 µg/mL) | > 150 µM | > 150 µM
9 | CC1CCCN(C(=O)COc2ccccc2CNC(C)CC2CCCCC2)C1 (stereo not drawn) [B273] | 150 µM (≈ 58 µg/mL) | 4 µM (≈ 1.55 µg/mL) | > 150 µM | > 150 µM
10 | CC(CC1CCCCC1)NCc1ccccc1OCCOCCO (stereo not drawn) [B274] | > 150 µM | 7 µM (≈ 2.35 µg/mL) | 150 µM (≈ 50.3 µg/mL) | 150 µM (≈ 50.3 µg/mL)
11 | CC(CC1CCCCC1)NCc1ccccc1OCCC(C)(C)O (stereo not drawn) [B275] | > 150 µM | 4 µM (≈ 1.33 µg/mL) | 150 µM (≈ 50 µg/mL) | 91 µM (≈ 30.3 µg/mL)
12 | COC(=O)CCCOc1ccccc1CNC(C)CC1CCCCC1 (stereo not drawn) [B276] | > 150 µM | 4 µM (≈ 1.39 µg/mL) | > 150 µM | > 150 µM
13 | COCCCCOc1ccccc1CNC(C)CC1CCCCC1 (stereo not drawn) [B277] | > 150 µM | 4 µM (≈ 1.33 µg/mL) | > 150 µM | > 150 µM
14 | Cc1noc(COc2ccccc2CNC(C)CC2CCCCC2)n1 (stereo not drawn) [B278] | > 150 µM | 12 µM (≈ 4.12 µg/mL) | > 150 µM | > 150 µM
15 | Cc1nnc(COc2ccccc2CNC(C)CC2CCCCC2)o1 (stereo not drawn) [B279] | > 150 µM | 12 µM (≈ 4.12 µg/mL) | > 150 µM | > 150 µM
16 | CC(CC1CCCCC1)NCc1ccccc1OCC(=O)NC1CC1 (stereo not drawn) [B280] | > 150 µM | 12 µM (≈ 4.13 µg/mL) | 150 µM (≈ 51.7 µg/mL) | 150 µM (≈ 51.7 µg/mL)
17 | CC(CC1CCCCC1)NCc1ccccc1OCC1CCOCC1 (stereo not drawn) [B281] | 91 µM (≈ 31.4 µg/mL) | 4 µM (≈ 1.38 µg/mL) | > 150 µM | 91 µM (≈ 31.4 µg/mL)
18 | Cc1cc(COc2ccccc2CNC(C)CC2CCCCC2)no1 (stereo not drawn) [B282] | 150 µM (≈ 51.4 µg/mL) | 3 µM (≈ 1.03 µg/mL) | > 150 µM | > 150 µM
19 | CC(CC1CCCCC1)NCc1ccccc1OCc1ccncc1 (stereo not drawn) [B283] | 150 µM (≈ 50.8 µg/mL) | 7 µM (≈ 2.37 µg/mL) | 91 µM (≈ 30.8 µg/mL) | 91 µM (≈ 30.8 µg/mL)
20 | CC(CC1CCCCC1)NCc1ccccc1OCC(=O)NCC1CC1 (stereo not drawn) [B284] | > 150 µM | 7 µM (≈ 2.51 µg/mL) | > 150 µM | > 150 µM
21 | CC(CC1CCCCC1)NCc1ccccc1OCCC(N)=O (stereo not drawn) [B285] | > 150 µM | 55 µM (≈ 17.5 µg/mL) | 91 µM (≈ 29 µg/mL) | > 150 µM
22 | CC(CC1CCCCC1)NCc1ccccc1OCc1ccccc1F (stereo not drawn) [B286] | 33 µM (≈ 11.7 µg/mL) | 3 µM (≈ 1.07 µg/mL) | 91 µM (≈ 32.4 µg/mL) | 91 µM (≈ 32.4 µg/mL)
23 | CC(CC1CCCCC1)NCc1ccccc1OCC1CC1 (stereo not drawn) [B287] | 150 µM (≈ 45.2 µg/mL) | 3 µM (≈ 0.904 µg/mL) | 150 µM (≈ 45.2 µg/mL) | 91 µM (≈ 27.4 µg/mL)
24 | CC(CC1CCCCC1)NCc1ccccc1OC1CCCC1 (stereo not drawn) [B288] | 91 µM (≈ 28.7 µg/mL) | 3 µM (≈ 0.947 µg/mL) | > 150 µM | 150 µM (≈ 47.3 µg/mL)
25 | C=CCOc1ccccc1CNC(C)CC1CCCCC1 (stereo not drawn) [B289] | 150 µM (≈ 43.1 µg/mL) | 3 µM (≈ 0.862 µg/mL) | 91 µM (≈ 26.2 µg/mL) | 150 µM (≈ 43.1 µg/mL)
26 | CC(CC1CCCCC1)NCc1ccccc1OCC(=O)N1CCCC1 (stereo not drawn) [B290] | > 150 µM | 33 µM (≈ 11.8 µg/mL) | > 150 µM | > 150 µM
27 | CC(CC1CCCCC1)NCc1ccccc1OC(F)F (stereo not drawn) [B291] | > 150 µM | 12 µM (≈ 3.57 µg/mL) | 91 µM (≈ 27.1 µg/mL) | > 150 µM
28 | CC(CC1CCCCC1)NCc1ccccc1OCc1cscn1 (stereo not drawn) [B292] | 150 µM (≈ 51.7 µg/mL) | 4 µM (≈ 1.38 µg/mL) | > 150 µM | > 150 µM
29 | CCOc1ccccc1CNC(C)CC1CCCCC1 (stereo not drawn) [B293] | > 150 µM | 4 µM (≈ 1.1 µg/mL) | 150 µM (≈ 41.3 µg/mL) | > 150 µM
30 | COCCOc1ccccc1CNC(C)CC1CCCCC1 (stereo not drawn) [B294] | > 150 µM | 7 µM (≈ 2.14 µg/mL) | > 150 µM | > 150 µM
